Legend:
Type in all cases: in vivo
Abutilon theophrasti [1] = assay: Pre-emergence herbicidal effect; conditions: Dosage 320 g/ha, scored visually after 3 weeks
From the text: (§1) Seeds of monocotyledonous and dicotyledonous weed plants and crop plants are laid out in wood-fiber pots in sandy loam and covered with soil. The compounds of the invention, formulated in the form of wettable powders (WP) or as emulsion concentrates (EC), are then applied to the surface of the covering soil as aqueous suspension or emulsion at a water application rate equating to 600 to 800 L/ha with addition of 0.2% wetting agent.
(§2) After the treatment, the pots are placed in a greenhouse and kept under good growth conditions for the trial plants. The damage to the test plants is scored visually after a test period of 3 weeks by comparison with untreated controls (herbicidal activity in percent (%): 100% activity=the plants have died, 0% activity=like control plants).
(§3) • ABUTH: Abutilon theophrasti ALOMY: Alopecurus myosuroides • AMARE: Amaranthus retroflexus AVEFA: Avena fatua • CYPES: Cyperus esculentus ECHCG: Echinochloa crus-galli • LOLMU: Lolium multiflorum MATIN: Matricaria inodora • PHBPU: Ipomoea purpurea POLCO: Polygonum convolvulus • SETVI: Setaria viridis STEME: Stellaria media • VERPE: Veronica persica VIOTR: Viola tricolor

Amaranthus retroflexus [2] = assay: Pre-emergence herbicidal effect; conditions: scored visually after 3 weeks
From the text: as §1, §2, §3

Echinochloa crus-galli = assay: Pre-emergence herbicidal effect; conditions: scored visually after 3 weeks
From the text: as §1, §2, §3

Matricaria inodora [3] = assay: Pre-emergence herbicidal effect; conditions: scored visually after 3 weeks
From the text: as §1, §2, §3

Polygonum convolvulus = assay: Pre-emergence herbicidal effect; conditions: scored visually after 3 weeks
From the text: as §1, §2, §3

Setaria viridis [4] = assay: Pre-emergence herbicidal effect; conditions: scored visually after 3 weeks
From the text: as §1, §2, §3

Stellaria media [5] = assay: Pre-emergence herbicidal effect; conditions: scored visually after 3 weeks
From the text: as §1, §2, §3

Veronica persica [6] = assay: Pre-emergence herbicidal effect; conditions: scored visually after 3 weeks
From the text: as §1, §2, §3

Viola tricolor [7] = assay: Pre-emergence herbicidal effect; conditions: scored visually after 3 weeks
From the text: as §1, §2, §3

Ipomoea purpurea = assay: Post-emergence herbicidal effect; conditions: 320 g/ha, assessed visually after about 3 weeks vs untreated controls
From the text: (§4) • ABUTH: Abutilon theophrasti ALOMY: Alopecurus myosuroides • AMARE: Amaranthus retroflexus AVEFA: Avena fatua • CYPES: Cyperus esculentus ECHCG: Echinochloa crus-galli • LOLMU: Lolium multiflorum MATIN: Matricaria inodora • PHBPU: Ipomoea purpurea POLCO: Polygonum convolvulus • SETVI: Setaria viridis STEME: Stellaria media • VERPE: Veronica persica VIOTR: Viola tricolor Seeds of monocotyledonous and dicotyledonous weed and crop plants are laid out in sandy loam in wood-fiber pots, covered with soil and cultivated in a greenhouse under good growth conditions. 2 to 3 weeks after sowing, the test plants are treated at the one-leaf stage. The compounds of the invention, formulated in the form of wettable powders (WP) or as emulsion concentrates (EC), are then sprayed onto the green parts of the plants as aqueous suspension or emulsion at a water application rate equating to 600 to 800 L/ha with addition of 0.2% wetting agent. After the test plants have been left to stand in the greenhouse under optimal growth conditions for about 3 weeks, the action of the preparations is assessed visually in comparison to untreated controls (herbicidal action in percent (%): 100% activity=the plants have died, 0% activity=like control plants).

Viola tricolor [8] = assay: Post-emergence herbicidal effect; conditions: assessed visually after about 3 weeks vs untreated controls
From the text: as §4

Abutilon theophrasti [9] = assay: Post-emergence herbicidal effect; conditions: assessed visually after about 3 weeks vs untreated controls
From the text: as §4

Amaranthus retroflexus [10] = assay: Post-emergence herbicidal effect; conditions: assessed visually after about 3 weeks vs untreated controls
From the text: as §4

Matricaria inodora [11] = assay: Post-emergence herbicidal effect; conditions: assessed visually after about 3 weeks vs untreated controls
From the text: as §4

Setaria viridis [12] = assay: Post-emergence herbicidal effect; conditions: assessed visually after about 3 weeks vs untreated controls
From the text: as §4

Veronica persica [13] = assay: Post-emergence herbicidal effect; conditions: assessed visually after about 3 weeks vs untreated controls
From the text: as §4

Alopecurus myosuroides = assay: Pre-emergence herbicidal effect; conditions: Dosage 320 g/ha, scored visually after 3 weeks
From the text: as §1, §2, §3

Stellaria media [14] = assay: Post-emergence herbicidal effect; conditions: assessed visually after about 3 weeks vs untreated controls
From the text: as §4

SMILES	AMARE pre-emergence efficacy (herbicidal activity) (Amaranthus retroflexus [2]; Dosage 320 g/ha)	ECHCG pre-emergence efficacy (herbicidal activity) (Echinochloa crus-galli; Dosage 320 g/ha)	MATIN pre-emergence efficacy (herbicidal activity) (Matricaria inodora [3]; Dosage 80 g/ha)	MATIN pre-emergence efficacy (herbicidal activity) (Matricaria inodora [3]; Dosage 320 g/ha)	SETVI pre-emergence efficacy (herbicidal activity) (Setaria viridis [4]; Dosage 80 g/ha)	SETVI pre-emergence efficacy (herbicidal activity) (Setaria viridis [4]; Dosage 320 g/ha)	STEME pre-emergence efficacy (herbicidal activity) (Stellaria media [5]; Dosage 80 g/ha)	STEME pre-emergence efficacy (herbicidal activity) (Stellaria media [5]; Dosage 320 g/ha)	VERPE pre-emergence efficacy (herbicidal activity) (Veronica persica [6]; Dosage 320 g/ha)	VIOTR pre-emergence efficacy (herbicidal activity) (Viola tricolor [7]; Dosage 80 g/ha)	VIOTR pre-emergence efficacy (herbicidal activity) (Viola tricolor [7]; Dosage 320 g/ha)	post-emergence efficacy PHBPU (Ipomoea purpurea)	post-emergence efficacy VIOTR (Viola tricolor [8]; 80 g/ha)	post-emergence efficacy VIOTR (Viola tricolor [8]; 320 g/ha)	VERPE pre-emergence efficacy (herbicidal activity) (Veronica persica [6]; Dosage 80 g/ha)	post-emergence efficacy ABUTH (Abutilon theophrasti [9]; 320 g/ha)	post-emergence efficacy AMARE (Amaranthus retroflexus [10]; 80 g/ha)	post-emergence efficacy AMARE (Amaranthus retroflexus [10]; 320 g/ha)	post-emergence efficacy MATIN (Matricaria inodora [11]; 320 g/ha)	post-emergence efficacy SETVI (Setaria viridis [12]; 320 g/ha)	also measured
Cc1cc2c(s1)CCCC2Nc1nc(N)c([S+](C)[O-])c(Cl)n1 (racemic) [compound 39]	100%	100%	100%	100%	100%	100%	100%	100%	100%	100%	100%	80%	80%	80%							ABUTH pre-emergence efficacy (herbicidal activity) (Abutilon theophrasti [1]): 80%; ECHCG pre-emergence efficacy (herbicidal activity) (Echinochloa crus-galli; Dosage 80 g/ha): 80%; POLCO pre-emergence efficacy (herbicidal activity) (Polygonum convolvulus; Dosage 80 g/ha): 80%; POLCO pre-emergence efficacy (herbicidal activity) (Polygonum convolvulus; Dosage 320 g/ha): 90%
Cc1cc2c(s1)CCCC2Nc1ncc(-c2ccccc2)c(N)n1 (racemic) [compound 296]			90%	100%	70%	100%		90%	100%	60%	100%		70%	80%	100%	70%	60%	90%	60%	70%	post-emergence efficacy SETVI (Setaria viridis [12]; 80 g/ha): 40%; post-emergence efficacy VERPE (Veronica persica [13]; 320 g/ha): 90%
Cc1cc2c(s1)CCCC2Nc1ncc(C(N)=O)c(N)n1 (racemic) [compound 267]	100%	90%			80%	80%	100%	100%	100%	90%	100%	80%	80%	90%	100%	80%	80%	80%	80%	60%	ALOMY pre-emergence efficacy (herbicidal activity) (Alopecurus myosuroides): 80%; AMARE pre-emergence efficacy (herbicidal activity) (Amaranthus retroflexus [2]; Dosage 80 g/ha): 100%; post-emergence efficacy ABUTH (Abutilon theophrasti [9]; 80 g/ha): 80%; post-emergence efficacy MATIN (Matricaria inodora [11]; 80 g/ha): 80%; post-emergence efficacy STEME (Stellaria media [14]; 80 g/ha): 80%; post-emergence efficacy STEME (Stellaria media [14]; 320 g/ha): 100%; post-emergence efficacy VERPE (Veronica persica [13]; 80 g/ha): 80%; post-emergence efficacy VERPE (Veronica persica [13]; 320 g/ha): 80%

Reference: patent publication US10251395B2, “Substituted furano-/thienocycloalkylamino-2-pyrimidine derivatives and use thereof for controlling undesired plant growth” (Bayer CropScience Aktiengesellschaft, priority 2015, dated 2019)
